Experimental data as given in ChEMBL document CHEMBL1201862, “PubChem BioAssay data set” (2004).
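The compound was tested at five concentrations on cells cultured in 96-well plates, with a 48-hour exposure period. GI50: concentration for 50% inhibition of growth.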 The source made the active and inactive calls. Rule as the data show it: active = GI50 up to about 1.1 µM and inactive = higher.

What was measured:
Assay in all cases: NCI-60 cell line screen, 48 h
UO-31 = tested on: UO-31
SK-MEL-5 = tested on: SK-MEL-5
SF-539 = tested on: SF-539
K562 = tested on: K562
SNB-75 = tested on: SNB-75
OVCAR-8 = tested on: OVCAR-8
MCF7 = tested on: MCF7
SR = tested on: SR
HT-29 = tested on: HT-29
NCI-H23 = tested on: NCI-H23
UACC-62 = tested on: UACC-62
SF-295 = tested on: SF-295
SF-268 = tested on: SF-268
LOX IMVI = tested on: LOX IMVI
NCI-H522 = tested on: NCI-H522
TK-10 = tested on: TK-10
ACHN = tested on: ACHN
CAKI-1 = tested on: CAKI-1
MDA-MB-231 = tested on: MDA-MB-231
SW-620 = tested on: SW-620

Row | SMILES | GI50 (UO-31) | GI50 (SK-MEL-5) | GI50 (SF-539) | GI50 (K562) | GI50 (SNB-75) | GI50 (OVCAR-8) | GI50 (MCF7) | GI50 (SR) | GI50 (HT-29) | GI50 (NCI-H23) | GI50 (UACC-62) | GI50 (SF-295) | GI50 (SF-268) | GI50 (LOX IMVI) | GI50 (NCI-H522) | GI50 (TK-10) | GI50 (ACHN) | GI50 (CAKI-1) | GI50 (MDA-MB-231) | GI50 (SW-620)
1 | Cc1ccc(C2=Nn3c(nc4sc5c(c4c3=O)CCCC5)SC2)cc1 | > 100 µM (inactive) | > 100 µM (inactive) | > 100 µM (inactive) | > 100 µM (inactive) | 96.4 µM (inactive) | > 100 µM (inactive) | > 100 µM (inactive) | > 100 µM (inactive) | > 100 µM (inactive) | > 100 µM (inactive) | > 100 µM (inactive) | > 100 µM (inactive) | > 100 µM (inactive) | > 100 µM (inactive) | > 100 µM (inactive) | > 100 µM (inactive) | > 100 µM (inactive) | > 100 µM (inactive) | > 100 µM (inactive) | > 100 µM (inactive)
2 | CCCCCc1c(Cl)nc(Cl)nc1Cl | 18.5 µM (inactive) | 5.81 µM (inactive) | 16 µM (inactive) | 2.18 µM (inactive) | 0.589 µM (active) | 10.4 µM (inactive) | 10.2 µM (inactive) | 0.157 µM (active) | 3.59 µM (inactive) | 3.18 µM (inactive) | 15.3 µM (inactive) | 25.1 µM (inactive) | 11.1 µM (inactive) | 0.471 µM (active) | 0.625 µM (active) | 12.1 µM (inactive) | 21 µM (inactive) | 2.88 µM (inactive) | 5.69 µM (inactive) | 3.63 µM (inactive)
3 | O=C1C2=Nc3ccccc3C(O)N2c2ccccc21 (centres undefined) | 46.8 µM (inactive) | 1.95 µM (inactive) | 49.3 µM (inactive) | > 76 µM (inactive) | 23.6 µM (inactive) | 32.3 µM (inactive) | 11.1 µM (inactive) | 86.5 µM (inactive) | 58.2 µM (inactive) | 3.92 µM (inactive) | 3.51 µM (inactive) | 35.9 µM (inactive) | 31.6 µM (inactive) | 2.96 µM (inactive) | 8.91 µM (inactive) | > 100 µM (inactive) | 5.62 µM (inactive) | 48.4 µM (inactive) | 14.9 µM (inactive) | > 100 µM (inactive)
4 | O=S1(=O)c2cnccc2N=C(NCc2cccc3ccccc23)N1c1ccccc1 | > 56.5 µM (inactive) | > 95.9 µM (inactive) | > 100 µM (inactive) | 29.4 µM (inactive) | > 100 µM (inactive) | > 93.1 µM (inactive) | 36.6 µM (inactive) | > 100 µM (inactive) | > 100 µM (inactive) | 36.2 µM (inactive) | > 22.4 µM (inactive) | 62.8 µM (inactive) | > 100 µM (inactive) | > 96.8 µM (inactive) | 30.6 µM (inactive) | 64.9 µM (inactive) | 35.9 µM (inactive) | > 100 µM (inactive) | > 43 µM (inactive) | > 100 µM (inactive)
5 | O=C1Oc2ccccc2C(=O)/C1=C/N1C(=O)N/C(=C\c2ccccc2O)C1=O | 39 µM (inactive) | 44.6 µM (inactive) | 59.8 µM (inactive) | 54.7 µM (inactive) | > 78.5 µM (inactive) | 58.1 µM (inactive) | 61.1 µM (inactive) | 32.3 µM (inactive) | 54.7 µM (inactive) | 59.8 µM (inactive) | 36.9 µM (inactive) | > 71 µM (inactive) | > 81.1 µM (inactive) | 34.1 µM (inactive) | 55.5 µM (inactive) | 60.5 µM (inactive) | 47.6 µM (inactive) | 79.4 µM (inactive) | 36.9 µM (inactive) | > 90.8 µM (inactive)
6 | N=C(N)SCc1cccc(-c2nc3ccccc3c(=O)o2)c1 | > 100 µM (inactive) | > 100 µM (inactive) | > 100 µM (inactive) | > 100 µM (inactive) | > 100 µM (inactive) | > 100 µM (inactive) | > 100 µM (inactive) | 95.5 µM (inactive) | > 100 µM (inactive) | > 100 µM (inactive) | > 100 µM (inactive) | > 100 µM (inactive) | > 100 µM (inactive) | > 100 µM (inactive) | > 100 µM (inactive) | > 100 µM (inactive) | > 100 µM (inactive) | > 100 µM (inactive) | > 100 µM (inactive) | > 100 µM (inactive)
7 | N#CC(C#N)[C@@H]1CCC=C(Sc2ccccc2)[C@H]1Sc1ccccc1 | 5.31 µM (inactive) | 3.41 µM (inactive) | 2 µM (inactive) | 2.36 µM (inactive) | 5.08 µM (inactive) | 2.7 µM (inactive) | 2.95 µM (inactive) | 1.97 µM (inactive) | 3.87 µM (inactive) | 3.96 µM (inactive) | 3.56 µM (inactive) | 6.44 µM (inactive) | 5.62 µM (inactive) | 2.46 µM (inactive) | 2.19 µM (inactive) | 1.86 µM (inactive) | 2.34 µM (inactive) | 2.65 µM (inactive) | 4.05 µM (inactive) | 2.42 µM (inactive)
8 | CC(=O)O[C@@H]1C[C@]2(C(=O)c3ccccc3)C(=O)C(=O)S[C@]12c1ccccc1 | 42.8 µM (inactive) | 32.4 µM (inactive) | 24.2 µM (inactive) | 24.8 µM (inactive) | 44 µM (inactive) | 36.4 µM (inactive) | 30 µM (inactive) | 32.9 µM (inactive) | 67.9 µM (inactive) | 45 µM (inactive) | 39.7 µM (inactive) | 65.9 µM (inactive) | 34.4 µM (inactive) | 34.3 µM (inactive) | 29.6 µM (inactive) | 55.7 µM (inactive) | 62.2 µM (inactive) | 42.9 µM (inactive) | 58.1 µM (inactive) | 31.6 µM (inactive)
9 | Cc1nc(NC(C)(CO)CO)nc(N/N=C/c2ccc(Cl)cc2)c1C(=O)Nc1ccc(Cl)cc1 | > 100 µM (inactive) | – | > 100 µM (inactive) | > 100 µM (inactive) | > 100 µM (inactive) | > 100 µM (inactive) | 51.1 µM (inactive) | > 10 µM (inactive) | > 100 µM (inactive) | > 100 µM (inactive) | 59.8 µM (inactive) | > 100 µM (inactive) | > 100 µM (inactive) | > 100 µM (inactive) | 48.1 µM (inactive) | > 100 µM (inactive) | 47.9 µM (inactive) | > 100 µM (inactive) | > 100 µM (inactive) | > 100 µM (inactive)
10 | Cc1cccc(C)c1NC(=O)/C=C/c1ccccc1 | – | > 100 µM (inactive) | > 100 µM (inactive) | > 100 µM (inactive) | 31.2 µM (inactive) | 73.1 µM (inactive) | > 100 µM (inactive) | > 100 µM (inactive) | > 100 µM (inactive) | > 100 µM (inactive) | > 100 µM (inactive) | 88.5 µM (inactive) | > 100 µM (inactive) | > 100 µM (inactive) | 18.8 µM (inactive) | > 100 µM (inactive) | 15.4 µM (inactive) | > 100 µM (inactive) | > 100 µM (inactive) | > 100 µM (inactive)
11 | Cc1nc2sc3ccccc3n2c(=O)c1/N=N/c1ccc(Br)cc1 | – | > 100 µM (inactive) | > 100 µM (inactive) | 81.1 µM (inactive) | > 100 µM (inactive) | > 100 µM (inactive) | 81.3 µM (inactive) | 82.6 µM (inactive) | > 100 µM (inactive) | > 100 µM (inactive) | > 100 µM (inactive) | > 100 µM (inactive) | 70.5 µM (inactive) | 54.8 µM (inactive) | 38.5 µM (inactive) | > 100 µM (inactive) | > 100 µM (inactive) | > 100 µM (inactive) | 60.1 µM (inactive) | > 100 µM (inactive)
12 | CCN(CC)P1(=S)Oc2ccc3ccccc3c2-c2c(ccc3ccccc23)O1 | > 100 µM (inactive) | > 100 µM (inactive) | > 100 µM (inactive) | > 100 µM (inactive) | 32.2 µM (inactive) | > 100 µM (inactive) | > 100 µM (inactive) | 27.4 µM (inactive) | 18.5 µM (inactive) | > 100 µM (inactive) | > 100 µM (inactive) | > 100 µM (inactive) | – | > 100 µM (inactive) | 60.1 µM (inactive) | > 100 µM (inactive) | 67.3 µM (inactive) | > 100 µM (inactive) | > 100 µM (inactive) | > 100 µM (inactive)
13 | Cc1cccc(Cl)c1NC(=O)/C=C/c1ccccc1 | – | 95.5 µM (inactive) | 44.8 µM (inactive) | > 100 µM (inactive) | 24.2 µM (inactive) | 26.1 µM (inactive) | 32.5 µM (inactive) | > 100 µM (inactive) | 59.3 µM (inactive) | > 100 µM (inactive) | > 100 µM (inactive) | 36.6 µM (inactive) | 67 µM (inactive) | > 100 µM (inactive) | 49.3 µM (inactive) | 40.6 µM (inactive) | 42.3 µM (inactive) | 76.9 µM (inactive) | 32.4 µM (inactive) | > 100 µM (inactive)
14 | CCOC(=O)C(NC(=O)CC)(Nc1ccc(S(=O)(=O)Nc2ncccn2)cc1)C(F)(F)F (centres undefined) | > 100 µM (inactive) | > 100 µM (inactive) | > 100 µM (inactive) | > 100 µM (inactive) | > 100 µM (inactive) | > 100 µM (inactive) | > 100 µM (inactive) | > 100 µM (inactive) | > 100 µM (inactive) | > 100 µM (inactive) | > 100 µM (inactive) | > 100 µM (inactive) | > 100 µM (inactive) | > 100 µM (inactive) | > 100 µM (inactive) | – | > 100 µM (inactive) | > 100 µM (inactive) | > 100 µM (inactive) | > 100 µM (inactive)
